According to patent US20100267561A1, “HERBICIDAL PYRIDAZINONE DERIVATIVES” (priority 2007, published 2010):

Tests used:
Assay type in all cases: in vivo
[1] = system: goosegrass (Eleusine indica); assay: Test B pre-/postemergence plant response; settings: for Goosegrass plant response rating: 8 g ai/ha
Outline: (§1)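 Seeds were sown and sprayed preemergence, while plants at 2 to 18 cm (1- to 4-leaf stage) got postemergence sprays. Compounds were formulated in a non-phytotoxic solvent mixture with surfactant. After 13 to 15 days in a greenhouse, injury was rated visually against untreated controls, 0 (no effect) to 100 (complete control).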

soybean (Glycine max) = assay: Test B pre-/postemergence plant response; settings: for Soybean plant response rating: 8 g ai/ha
Outline: as §1

[2] = system: woolly cupgrass (Eriochloa villosa); assay: Test B pre-/postemergence plant response; settings: for Cupgrass, Woolly plant response rating: 8 g ai/ha
Outline: as §1

[3] = system: catchweed bedstraw (Galium aparine); assay: Test B pre-/postemergence plant response; settings: Preemergence
Outline: as §1

[4] = system: Russian thistle (Salsola iberica); assay: Test B pre-/postemergence plant response; settings: Preemergence
Outline: as §1

[5] = system: large crabgrass (Digitaria sanguinalis); assay: Test B pre-/postemergence plant response; settings: for Crabgrass, Large plant response rating: 8 g ai/ha
Outline: as §1

[6] = system: wheat (Triticum aestivum); assay: Test B pre-/postemergence plant response; settings: for Wheat plant response rating: 8 g ai/ha
Outline: as §1

[7] = system: cocklebur (Xanthium strumarium); assay: Test B pre-/postemergence plant response; settings: for Cocklebur plant response rating: 8 g ai/ha
Outline: as §1

[8] = system: downy bromegrass (Bromus tectorum); assay: Test B pre-/postemergence plant response; settings: for Bromegrass, Downy plant response rating: 8 g ai/ha
Outline: as §1

[9] = system: velvetleaf (Abutilon theophrasti); assay: Test B pre-/postemergence plant response; settings: for Velvetleaf plant response rating: 8 g ai/ha
Outline: as §1

[10] = system: common (oilseed) sunflower (Helianthus annuus); assay: Test B pre-/postemergence plant response; settings: Preemergence
Outline: as §1

[11] = system: green foxtail (Setaria viridis); assay: Test B pre-/postemergence plant response; settings: for Foxtail, Green plant response rating: 8 g ai/ha
Outline: as §1

[12] = system: pigweed (Amaranthus retroflexus); assay: Test B pre-/postemergence plant response; settings: for Pigweed plant response rating: 8 g ai/ha
Outline: as §1

rice (Oryza sativa) = assay: Test B flooded paddy test plant response
Outline: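 Rice, umbrella sedge, ducksalad and barnyardgrass at 2-leaf stage; pots flooded to 3 cm, compounds applied into paddy water, depth held throughout. Greenhouse 13 to 15 days, then visual rating vs untreated controls on 0–100 scale (0 no effect, 100 complete control); dash means no test result.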

[13] = Postemergence, 16 g ai/ha, scale 0 to 100
[14] = Postemergence, 31 g ai/ha, scale 0 to 100, 0 no effect, 100 complete control
[15] = Postemergence, 62 g ai/ha, scale 0 to 100, 0 no effect, 100 complete control
[16] = Preemergence, 16 g ai/ha, scale 0 to 100 (0 no effect, 100 complete control)
[17] = Preemergence, 31 g ai/ha, 0 to 100 scale, 0 no effect, 100 complete control
[18] = Preemergence, 62 g ai/ha, scale 0 to 100
[19] = 16 g ai/ha, scale 0 to 100 (0 no effect, 100 complete control)
[20] = 31 g ai/ha, 0 to 100 scale, 0 no effect, 100 complete control

Cc1cc(-c2ccc(Cl)cc2)nn1-c1c(OC(=O)c2cccc(Cl)c2)cnn(C)c1=O [Compound 32]
Goosegrass plant response rating ([1]; postemergence, 0-100 scale): 0 | Plant response rating, Goosegrass [1, 13]: 65 | Plant response rating, Goosegrass [1, 14]: 70 | Plant response rating, Goosegrass [1, 15]: 70 | Plant response rating, Goosegrass [1, 16]: 98 | Plant response rating, Goosegrass [1, 17]: 98 | Plant response rating, Goosegrass [1, 18]: 100 | Goosegrass plant response rating ([1]; Preemergence, scale 0 to 100): 60 | Soybean plant response rating (soybean (Glycine max); postemergence, 0-100 scale): 0 | Plant response rating, Soybean (soybean (Glycine max); [13]): 0 | Plant response rating, Soybean (soybean (Glycine max); [15]): 0 | Plant response rating, Soybean (soybean (Glycine max); [16]): 0 | Plant response rating, Soybean (soybean (Glycine max); [17]): 0 | Plant response rating, Soybean (soybean (Glycine max); [18]): 0 | Soybean plant response rating (soybean (Glycine max); Preemergence, scale 0 to 100): 0 | Cupgrass, Woolly plant response rating ([2]; postemergence, 0-100 scale): 75 | Plant response rating, Cupgrass, Woolly [2, 13]: 85 | Plant response rating, Cupgrass, Woolly [2, 14]: 100 | Plant response rating, Cupgrass, Woolly [2, 15]: 100 | Plant response rating, Cupgrass, Woolly [2, 16]: 70 | Plant response rating, Cupgrass, Woolly [2, 17]: 80 | Plant response rating, Cupgrass, Woolly [2, 18]: 85 | Cupgrass, Woolly plant response rating ([2]; Preemergence, scale 0 to 100): 55 | Plant response rating, Galium [3, 19]: 0 | Plant response rating, Galium [3, 20]: 0 | Plant response rating, Galium ([3]; 62 g ai/ha, scale 0 to 100): 0 | Galium plant response rating ([3]; 8 g ai/ha, scale 0 to 100): 0 | Plant response rating, Russian Thistle [4, 19]: 0 | Plant response rating, Russian Thistle [4, 20]: 0 | Plant response rating, Russian Thistle ([4]; 62 g ai/ha, scale 0 to 100): 0 | Russian Thistle plant response rating ([4]; 8 g ai/ha, scale 0 to 100): 0 | Crabgrass, Large plant response rating ([5]; postemergence, 0-100 scale): 60 | Plant response rating, Crabgrass, Large [5, 13]: 85 | Plant response rating, Crabgrass, Large [5, 14]: 95 | Plant response rating, Crabgrass, Large [5, 15]: 98 | Plant response rating, Crabgrass, Large [5, 16]: 85 | Plant response rating, Crabgrass, Large [5, 17]: 100 | Plant response rating, Crabgrass, Large [5, 18]: 100 | Crabgrass, Large plant response rating ([5]; Preemergence, scale 0 to 100): 20 | Wheat plant response rating ([6]; postemergence, 0-100 scale): 0 | Plant response rating, Wheat [6, 13]: 30 | Plant response rating, Wheat [6, 16]: 0 | Plant response rating, Wheat [6, 17]: 20 | Plant response rating, Wheat [6, 18]: 70 | Wheat plant response rating ([6]; Preemergence, scale 0 to 100): 0 | Cocklebur plant response rating ([7]; postemergence, 0-100 scale): 0 | Plant response rating, Cocklebur [7, 13]: 0 | Plant response rating, Cocklebur [7, 14]: 0 | Plant response rating, Cocklebur [7, 15]: 0 | Plant response rating, Cocklebur [7, 16]: 0 | Plant response rating, Cocklebur [7, 17]: 0 | Plant response rating, Cocklebur [7, 18]: 0 | Cocklebur plant response rating ([7]; Preemergence, scale 0 to 100): 0 | Bromegrass, Downy plant response rating ([8]; postemergence, 0-100 scale): 5 | Plant response rating, Bromegrass, Downy [8, 13]: 10 | Plant response rating, Bromegrass, Downy [8, 14]: 45 | Plant response rating, Bromegrass, Downy [8, 15]: 60 | Plant response rating, Bromegrass, Downy [8, 16]: 0 | Plant response rating, Bromegrass, Downy [8, 17]: 0 | Plant response rating, Bromegrass, Downy [8, 18]: 75 | Bromegrass, Downy plant response rating ([8]; Preemergence, scale 0 to 100): 0 | Velvetleaf plant response rating ([9]; postemergence, 0-100 scale): 0 | Plant response rating, Velvetleaf [9, 13]: 0 | Plant response rating, Velvetleaf [9, 15]: 0 | Plant response rating, Velvetleaf [9, 16]: 0 | Plant response rating, Velvetleaf [9, 17]: 0 | Plant response rating, Velvetleaf [9, 18]: 0 | Velvetleaf plant response rating ([9]; Preemergence, scale 0 to 100): 0 | Plant response rating, Sunflower [10, 19]: 0 | Plant response rating, Sunflower [10, 20]: 0 | Plant response rating, Sunflower ([10]; 62 g ai/ha, scale 0 to 100): 0 | Sunflower plant response rating ([10]; 8 g ai/ha, scale 0 to 100): 0 | Foxtail, Green plant response rating ([11]; postemergence, 0-100 scale): 60 | Plant response rating, Foxtail, Green [11, 13]: 60 | Plant response rating, Foxtail, Green [11, 14]: 90 | Plant response rating, Foxtail, Green [11, 15]: 95 | Plant response rating, Foxtail, Green [11, 16]: 100 | Plant response rating, Foxtail, Green [11, 17]: 100 | Plant response rating, Foxtail, Green [11, 18]: 100 | Foxtail, Green plant response rating ([11]; Preemergence, scale 0 to 100): 70 | Pigweed plant response rating ([12]; postemergence, 0-100 scale): 0 | Plant response rating, Pigweed [12, 13]: 0 | Plant response rating, Pigweed [12, 14]: 0 | Plant response rating, Pigweed [12, 15]: 0 | Plant response rating, Pigweed [12, 16]: 0 | Plant response rating, Pigweed [12, 17]: 0 | Plant response rating, Pigweed [12, 18]: 0 | Pigweed plant response rating ([12]; Preemergence, scale 0 to 100): 0 | Plant response rating, Rice (rice (Oryza sativa); Flood (flooded paddy test), 62 g ai/ha, scale 0 to 100, 0 no effect, 100 complete control): 0 | Plant response rating, Rice (rice (Oryza sativa); Flood (flooded paddy test), 125 g ai/ha, scale 0 to 100, 0 no effect, 100 complete control): 30 | Plant response rating, Rice (rice (Oryza sativa); Flood (flooded paddy test), 250 g ai/ha, scale 0 to 100, 0 no effect, 100 complete control): 65 | Plant response rating, Rice (rice (Oryza sativa); Flood, 31 g ai/ha, scale 0 to 100): 0
